How the values were obtained:
His-Bcl-2 = molecular target: T1, His-Bcl-2 (Homo sapiens, UniProt P10415); assay: Probing protein-protein interactions for Bcl-2 with the His-Bcl-2-5 complex; assay type: binding; details: complex 200 nM
T1 construct: purchased ProSpec-Tany TechnoGene Ltd. (Ness Ziona, Israel)
Experimental: Compounds 1-5 (50 μL, 10 μM) in phosphate buffer (4.1 mM, pH=7.3) were dispensed into a 384-well plate and fluorescence intensities were recorded with an excitation wavelength of 330 nm. His-Bcl-2 (final concentration, 200 nM) and Bax BH3 (final concentration, 1.6 μM) were subsequently added to each well and the fluorescence intensity values were recorded again. The emission values correspond to the maximal intensities recorded either at λem=530 nm or at λem=560 nm. Fluorescence was measured in triplicate. Data shown in FIG. 27 is the average of the triplicates and error bars represent standard deviation. Control experiments were performed in a similar manner (FIG. 28).
A mixture of compound 5 (200 nM) and His-Bcl-2 (200 nM) in PBS buffer (4.1 mM, pH=7.3) was dispensed into a 384-well microplate, and the fluorescence emission spectra were recorded. Various proteins (0.8 μM) and Bax BH3 peptide (0.8 μM) were added and the fluorescence emission was again recorded. Fluorescence measurements were performed in triplicate. The emission intensities before the addition of each protein were normalized to 100% (FIG. 27b).

His-CaM(Ca^+2) [1] = molecular target: T2, His-CaM(Ca^+2) (Mus musculus, UniProt P0DP26); assay: Surface plasmon resonance on immobilized His-CaM with Ca2+; assay type: binding; details: SPR, Table 2, CaCl2 0.3 mM; read-out: Dissociation constant
T2 construct: purchased Israel Structural Proteomics Center (Weizmann Institute of Science)
Experimental: SPR experiments were performed to assess the dissociation constant between His-CaM and the compound 1 in the presence/absence of Ca^2+ ions and other ligands. His-CaM was diluted in 180 μL PBS buffer (4.1 mM, pH=7.3) and 20 μL sodium acetate (1 M, pH=3) to reach a final concentration of 20 μg/mL and then immobilized on a Biacore sensor chip CM5 through EDC/NHS chemistry. Flow cells were activated for 5 min by injecting 50 μL mixture of 50 mM NHS:200 mM EDC. Then 50 μL of His-CaM (20 μg/mL) was injected at a rate of 10 μL/min followed by injection of ethanolamine (1 M) to block the remaining surface-activated groups. Various analytes (Table 1) were injected in different concentrations, ranging from 0.1-2 μM for (20 μL/min, 80 μL injection with a delay of 180 s wash) (Table 1). Between consecutive analyte injections, the surface was regenerated with 2 mM NaOH (20 μL at 10 μL/min) followed by PBS buffer (60 μL at 10 μL/min). Non-derivatized dextran matrix flow cells served as reference cells. […] CaCl2 (0.3 mM) was pre-incubated with the analyte before injections. For the control compound C15 (entry 5), prior to each injection, the chip was washed with 20 μL EDTA (50 mM, 20 μL/min) followed by PBS buffer (20 μL at 20 μL/min) to remove any traces of Ni^2+. The data were globally fitted using BiaEvaluation software 3.2.

His-CaM(Ca^+2) [2] = molecular target: T2, His-CaM(Ca^+2); assay: Screening assay with small molecules and peptide inhibitors using the His-CaM(Ca+2)-1 complex; details: test substance 1.6 μM; decrease indicates binding to the CaM surface
Experimental: A mixture of compound 1 (200 nM), His-CaM (400 nM), and CaCl2 (0.3 mM) in PBS buffer (4.1 mM, pH=7.3) was dispensed into a 384-well microplate, and fluorescence emission spectra were recorded. Then various drugs (1.6 μM) and peptides (1.6 μM) were added and the fluorescence emission was again recorded. Fluorescence measurements were performed in triplicate and the emission intensities before the addition of each drug were normalized to 100% (FIG. 24).

[3] = test system: E. coli expressing His-OmpC; assay: Decorating bacteria with oligonucleotides, fluorescence microscopy; assay type: cell-based; details: 500 nM with Ni(II)
Experimental: Transformed bacteria with the different OmpC constructs (OmpC or His-OmpC) were cultured to saturation in LB medium supplemented with 100 μg/ml of ampicillin at 30° C. 40 μl of the pre-cultured cells were then diluted into 4 ml of fresh LB medium supplemented with ampicillin and incubated until the OD600 reaches ˜0.6. Protein expression was then induced by the addition of 0.1% Rhamnose and 20 μM isopropyl-b-D-1-thiogalactopyranoside (IPTG) and cultures were allowed to grow at 30° C. for 18 h.
The bacterial cells (OmpC or His-OmpC) were collected by centrifugation at 6000 g for 4 min. The pellet was washed twice with PBS×1 buffer and resuspended in the same buffer to an OD600 of 0.3. To a 100 μl sample of the bacteria suspension, a preincubated sample of DNA (500 nM) and NiCl2 (2.5 μM) was added, and the cells were incubated at room temperature for 1 h. Then the bacterial sample were washed twice with PBS, resuspended in 100 μl PBS and placed on a glass-bottom dish (P35G-1.5-14-C; MatTek) precoated with poly-1-lysine (Sigma Aldrich) and left to adhere for 1 h. Finally, the wells were washed vigorously with PBS three times and imaged using an Olympus IX51 fluorescent microscope. The samples were imaged using 60× or 100× objective lenses. […]

T1 sequence (P10415 whole entry): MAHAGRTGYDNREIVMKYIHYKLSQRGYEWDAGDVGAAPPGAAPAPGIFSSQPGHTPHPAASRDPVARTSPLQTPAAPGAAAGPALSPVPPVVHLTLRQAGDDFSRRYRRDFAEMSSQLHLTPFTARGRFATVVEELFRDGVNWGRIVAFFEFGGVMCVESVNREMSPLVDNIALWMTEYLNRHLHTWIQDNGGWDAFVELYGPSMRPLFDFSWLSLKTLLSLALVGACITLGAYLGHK

Compound | emission signal of the His-Bcl-2-5 complex after addition of protein or peptide (His-Bcl-2) | Kd (His-CaM(Ca^+2) [1]) | fluorescence emission of the His-CaM(Ca+2)-1 complex after addition of drug or peptide (His-CaM(Ca^+2) [2]) | fluorescent labeling of bacteria, fluorescence imaging [3]
CC[C@H](C)[C@H](NC(=O)[C@H](Cc1ccccc1)NC(=O)[C@H](CC(N)=O)NC(=O)[C@H](CCCCN)NC(=O)[C@H](CCCCN)NC(=O)[C@H](Cc1c[nH]c2ccccc12)NC(=O)[C@H](CCCNC(=N)N)NC(=O)[C@H](CCCNC(=N)N)NC(=O)[C@@H](N)CCCCN)C(=O)N[C@@H](C)C(=O)N[C@H](C(=O)N[C@@H](CO)C(=O)N[C@@H](C)C(=O)N[C@@H](C)C(=O)N[C@@H](CC(N)=O)C(=O)N[C@@H](CCCNC(=N)N)C(=O)N[C@@H](Cc1ccccc1)C(=O)N[C@@H](CCCCN)C(=O)N[C@@H](CCCCN)C(=O)N[C@H](C(=O)N[C@@H](CO)C(=O)N[C@@H](CO)C(=O)N[C@@H](CO)C(=O)NCC(=O)N[C@@H](C)C(=O)N[C@@H](CC(C)C)C(=O)O)[C@@H](C)CC)C(C)C [Compound M13] | did not change the emission signal | 8.8 nM | – | –
Clc1ccc(C(c2ccc(Cl)cc2)n2cc[n+](CC(OCc3ccc(Cl)cc3Cl)c3ccc(Cl)cc3Cl)c2)cc1 (stereo not shown) [calmidazolium] | – | – | decrease in the fluorescence emission | –
Bax-BH3: amphipathic alpha helical peptide of Bax, Bax BH3 peptide (55-74) wild type (STKKLSECLKRIGDELDSNM) | decreased | – | – | –
Cy5-labeled ODN: Cy5-labeled ODN lacking a tri-NTA group, negative control (DNA GCGGCGAGGCAGC; Cy5 label, position not given here) | – | – | – | No fluorescence
Mastoparan | did not change the emission signal | – | decrease in the fluorescence emission | –

— US11639929B2, “Universal histidine-tag binding compounds and methods of use thereof as fluorescent probes and sensors” (YEDA RESEARCH AND DEVELOPMENT CO. LTD., priority 2014, dated 2023)
